# Test results taken from patent publication US20220184008A1, “MODULATORS OF INTRACELLULAR CHLORIDE CONCENTRATION” (FONDAZIONE ISTITUTO ITALIANO DI TECNOLOGIA, priority 2019, published 2022).
# Columns and labels:
# NKCC1 [1] = assay: Calcium kinetic assay in primary cultures of immature hippocampal neurons; assay type: cell-based; details: for NKCC1 Inhibition % 10 μM Neurons Calcium kinetic assay: immature neurons 3 DIV
# NKCC1 [2] = target: T1, NKCC1 (Homo sapiens, UniProt P55011); assay: Chloride kinetic assay (Cl-sensitive YFP) in NKCC1-transfected HEK293 cells; assay type: cell-based; details: for inhibition at 10 µM / NKCC1 Inhibition % 10 μM HEK Chloride YFP assay: NKCC1-transfected HEK293; for inhibition at 10 µM: read-out: NKCC1 Inhibition % 10 μM HEK Chloride YFP assay
# T1 construct: expressed in transfected cells; host or cells: HEK293
# T1 sequence (P55011 1-1212): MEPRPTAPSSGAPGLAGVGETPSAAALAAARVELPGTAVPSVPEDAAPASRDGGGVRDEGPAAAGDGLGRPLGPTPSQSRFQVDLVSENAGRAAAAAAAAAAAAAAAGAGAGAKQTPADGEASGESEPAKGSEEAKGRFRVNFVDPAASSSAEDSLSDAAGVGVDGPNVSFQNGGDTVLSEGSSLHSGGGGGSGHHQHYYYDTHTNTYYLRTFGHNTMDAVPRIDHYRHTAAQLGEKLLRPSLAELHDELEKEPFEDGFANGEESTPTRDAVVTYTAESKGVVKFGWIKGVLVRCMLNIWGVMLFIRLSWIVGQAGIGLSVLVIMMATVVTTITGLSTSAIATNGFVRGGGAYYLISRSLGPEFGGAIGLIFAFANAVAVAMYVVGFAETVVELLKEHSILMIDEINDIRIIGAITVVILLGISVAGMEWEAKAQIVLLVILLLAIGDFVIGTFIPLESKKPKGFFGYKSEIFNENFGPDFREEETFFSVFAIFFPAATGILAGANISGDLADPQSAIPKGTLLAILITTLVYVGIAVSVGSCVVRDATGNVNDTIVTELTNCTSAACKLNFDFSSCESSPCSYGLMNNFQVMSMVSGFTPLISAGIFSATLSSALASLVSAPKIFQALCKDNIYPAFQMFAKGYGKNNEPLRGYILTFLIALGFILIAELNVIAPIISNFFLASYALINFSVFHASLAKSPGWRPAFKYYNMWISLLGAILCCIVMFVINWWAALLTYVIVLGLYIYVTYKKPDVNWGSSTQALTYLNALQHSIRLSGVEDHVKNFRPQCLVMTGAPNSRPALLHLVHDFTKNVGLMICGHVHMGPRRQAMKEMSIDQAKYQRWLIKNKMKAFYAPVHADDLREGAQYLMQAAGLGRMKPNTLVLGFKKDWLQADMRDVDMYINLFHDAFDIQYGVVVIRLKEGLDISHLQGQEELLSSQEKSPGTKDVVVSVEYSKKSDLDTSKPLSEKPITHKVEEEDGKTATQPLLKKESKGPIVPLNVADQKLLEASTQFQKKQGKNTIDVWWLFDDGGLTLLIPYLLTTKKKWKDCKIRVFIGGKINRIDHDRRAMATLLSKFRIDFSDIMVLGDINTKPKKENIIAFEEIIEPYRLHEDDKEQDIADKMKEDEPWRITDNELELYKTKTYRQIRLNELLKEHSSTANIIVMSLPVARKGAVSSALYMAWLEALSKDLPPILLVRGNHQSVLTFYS
Compound,inhibition at 10 µM (NKCC1 [2]; Table 1) [%],NKCC1 Inhibition % 10 μM HEK Chloride YFP assay (NKCC1 [2]; Table 1),NKCC1 Inhibition % 10 μM HEK Chloride YFP assay (NKCC1 [2]; Table 2),NKCC1 inhibition compared with bumetanide and furosemide (NKCC1 [2]; 100 μM),NKCC1 Inhibition % 10 μM Neurons Calcium kinetic assay (NKCC1 [1]; Table 1) [%],NKCC1 Inhibition % 10 μM Neurons Calcium kinetic assay (NKCC1 [1]; Table 2) [%],"fluorescence increase upon GABA application compared with vehicle (DMSO)-treated controls (NKCC1 [1]; GABA 100 μM, normalized to KCl)",effect on decrease in fluorescence upon NaCl application in NKCC1-transfected cells (NKCC1 [2]; pre-incubation at 10 μM and 100 μM)
"CCCCNc1ccc(C(=O)O)cc1S(=O)(=O)NC [Compound 3.6, 4-(butylamino)-3-(methylsulfamoyl)benzoic acid]",8,–,–,–,6,6,–,–
"CCCCCCNc1ccc(C(=O)O)cc1S(=O)(=O)NC [Compound 3.7, 4-(hexylamino)-3-(methylsulfamoyl)benzoic acid]",–,Inactive,Inactive,–,7,7,–,–
"CCCCCCCCNc1ccc(C(=O)O)cc1S(=O)(=O)NC [Compound 3.8, 3-(methylsulfamoyl)-4-(octylamino)benzoic acid]",16,–,–,–,20,20,–,–
"CNS(=O)(=O)c1cc(C(=O)O)ccc1NCCC(C)(C)C [Compound 3.9, 4-(3,3-dimethylbutylamino)-3-(methylsulfamoyl)benzoic acid]",–,Inactive,Inactive,–,14,14,–,–
"CCCCNc1ccc(C(=O)O)cc1S(=O)(=O)N(C)C [Compound 3.11, 4-(butylamino)-3-(dimethylsulfamoyl)benzoic acid]",9,–,–,–,8,8,–,–
Furosemide [reference compound],–,Inactive,Inactive,–,36,36,significantly reduced,effective at 100 μM only

# Second part, led by results:
inhibition at 10 µM (NKCC1 [2]; Table 1) [%],NKCC1 Inhibition % 10 μM HEK Chloride YFP assay (NKCC1 [2]; Table 1),NKCC1 Inhibition % 10 μM HEK Chloride YFP assay (NKCC1 [2]; Table 2),NKCC1 inhibition compared with bumetanide and furosemide (NKCC1 [2]; 100 μM),Compound,NKCC1 Inhibition % 10 μM Neurons Calcium kinetic assay (NKCC1 [1]; Table 1) [%],NKCC1 Inhibition % 10 μM Neurons Calcium kinetic assay (NKCC1 [1]; Table 2) [%],"fluorescence increase upon GABA application compared with vehicle (DMSO)-treated controls (NKCC1 [1]; GABA 100 μM, normalized to KCl)",effect on decrease in fluorescence upon NaCl application in NKCC1-transfected cells (NKCC1 [2]; pre-incubation at 10 μM and 100 μM)
8,–,–,–,"CCCCCCNc1ccc(C(=O)O)cc1S(=O)(=O)N(C)C [Compound 3.12, 3-(dimethylsulfamoyl)-4-(hexylamino)benzoic acid]",13,13,–,–
–,Inactive,Inactive,–,"CCCCCCCCNc1ccc(C(=O)O)cc1S(=O)(=O)N(C)C [Compound 3.13, 3-(dimethylsulfamoyl)-4-(octylamino)benzoic acid]",45,45,–,–
–,Inactive,Inactive,–,"CN(C)S(=O)(=O)c1cc(C(=O)O)ccc1NCCC(C)(C)C [Compound 3.14, 4-(3,3-dimethylbutylamino)-3-(dimethylsulfamoyl)benzoic acid]",11,11,–,–
37,–,–,better than bumetanide and furosemide,"CN(C)S(=O)(=O)c1cc(C(=O)O)ccc1NCCCCCCCC(F)(F)F [Compound 3.17, 3-(dimethylsulfamoyl)-4-(8,8,8-trifluorooctylamino) benzoic acid]",46,46,–,–
